Activity calls are given as the source filed them. No cut-off for these calls is given here.
Assays:
[1] = Cardiotoxicity against Sprague-Dawley rat assessed as decrease in cleaved caspase-3 level in heart at 14.2 mg/kg, ip administered for 6 days by immunofluorescence staining analysis; format: toxicity, organism-based; settings: in vivo, 144 h, time 6 day
[2] = Stability of the compound in PBS at 500 uM measured within 144 hrs at pH 7.4 at 37 degC by HPLC analysis; format: physicochemical; settings: buffer, pH 7.4, 144 h
[3] = Drug metabolism in Wistar rat assessed as DCF level in blood at 10.5 mg/kg, po administered via gavage measured after 5 mins by LC-MS/MS analysis; format: ADME, organism-based; settings: in vivo
[4] = Toxicity against Sprague-Dawley rat assessed as elevation of beneficial gut probiotics(Prevotellaceae and Erysipelotrichaceae) at 10.5 mg/kg, po administered via gavage for 7 days and measured at 2 hrs post-last drug dosage by Kruskal-Wallis H test; format: organism-based; settings: in vivo, 168 h, time 7 day
[5] = Toxicity against Sprague-Dawley rat assessed as apoptosis in intestine at 10.5 mg/kg, po administered via gavage for 7 days and measured at 2 hrs post-last drug dosage by TUNEL immunofluorescence staining; format: organism-based; settings: in vivo, 168 h, time 7 day
[6] = Toxicity against collagen-induced arthritis Wistar rat model assessed as gastric ulceration at 16.8 umol/kg, po administered for 28 days; format: organism-based; settings: in vivo, 672 h, dose 16.8 µmol/kg, time 28 day
[7] = Toxicity against collagen-induced arthritis Wistar rat model assessed as glutathione level in liver at 33.7 umol/kg, po administered for 28 days; format: organism-based; settings: in vivo, 672 h, dose 33.7 µmol/kg, time 28 day
[8] = Toxicity against C57BL/6J mouse assessed as AST level in serum at 506 umol/kg, ip measured after 24 hrs; format: organism-based; settings: in vivo, dose 506 µmol/kg
Rattus norvegicus [9] = test: Antiinflammatory activity against collagen-induced arthritis Wistar rat model assessed as increase in IL-10 level in serum at 33.7 umol/kg, po administered for 28 days via gavage by ELISA; format: functional, organism-based; settings: dose 33.7 µmol/kg, time 28.0 day
[10] = Stability of the compound in PBS at 500 uM measured for 3 months at pH 7.4 at -20 degC by HPLC analysis; format: physicochemical; settings: buffer, pH 7.4, 2190 h
[11] = Toxicity against collagen-induced arthritis Wistar rat model assessed as preserved mucosa integrity without gastrointestinal damage at 33.7 umol/kg, po administered for 28 days by Hematoxylin-Eosin staining based analysis; format: organism-based; settings: in vivo, 672 h, dose 33.7 µmol/kg, time 28 day
[12] = Cardiotoxicity against Sprague-Dawley rat assessed as LDH level in serum at 14.2 mg/kg, ip administered for 6 days (reference value: 831.8 +/-23.1 U/L); format: toxicity, organism-based; settings: in vivo, 144 h, time 6 day
[13] = Toxicity against Sprague-Dawley rat assessed as valeric acid and caproic acid in feces at 10.5 mg/kg, po administered via gavage for 7 days and measured at 2 hrs post-last drug dosage; format: organism-based; settings: in vivo, 168 h, time 7 day
[14] = Cardiotoxicity against Sprague-Dawley rat assessed as cTnI level in serum at 14.2 mg/kg, ip administered for 6 days (reference value: 1.9 +/-0.2 ng/ml); format: toxicity, organism-based; settings: in vivo, 144 h, time 6 day
[15] = Toxicity against collagen-induced arthritis Wistar rat model assessed as increase in body weight at 33.7 umol/kg, po administered for 28 days; format: organism-based; settings: in vivo, 672 h, at 33.7 µmol/kg, time 28 day
[16] = Cardiotoxicity against Sprague-Dawley rat assessed as MDA level in heart at 14.2 mg/kg, ip administered for 6 days; format: toxicity, organism-based; settings: in vivo, 144 h, time 6 day
[17] = Toxicity against collagen-induced arthritis Wistar rat model assessed as creatinine level in serum at 33.7 umol/kg, po administered for 28 days; format: organism-based; settings: in vivo, 672 h, dose 33.7 µmol/kg, time 28 day
[18] = Stability of the compound in rat plasma assessed as half life by LC-MS/MS analysis; format: ADME, cell-free
[19] = Toxicity against Sprague-Dawley rat assessed as preservation of integrity of jejunal vili without crypt damage and less glandular structure loss in colon at 10.5 mg/kg, po administered via gavage for 7 days and measured at 2 hrs post-last drug dosage by Hematoxylin-Eosin staining based analysis; format: organism-based; settings: in vivo, 168 h, time 7 day
[20] = Toxicity against collagen-induced arthritis Wistar rat model assessed as increase in body weight at 16.8 umol/kg, po administered for 28 days; format: organism-based; settings: in vivo, 672 h, at 16.8 µmol/kg, time 28 day
[21] = target: T1, Prostaglandin G/H synthase 1 (Ovis aries, UniProt P05979); test: Inhibition of ovine COX1 assessed as reduction in PGF2alpha production using arachidonic acid as substrate preincubated with enzyme for 10 mins followed by substrate addition and measured after 2 mins by ELISA
T1 sequence (P05979 whole entry): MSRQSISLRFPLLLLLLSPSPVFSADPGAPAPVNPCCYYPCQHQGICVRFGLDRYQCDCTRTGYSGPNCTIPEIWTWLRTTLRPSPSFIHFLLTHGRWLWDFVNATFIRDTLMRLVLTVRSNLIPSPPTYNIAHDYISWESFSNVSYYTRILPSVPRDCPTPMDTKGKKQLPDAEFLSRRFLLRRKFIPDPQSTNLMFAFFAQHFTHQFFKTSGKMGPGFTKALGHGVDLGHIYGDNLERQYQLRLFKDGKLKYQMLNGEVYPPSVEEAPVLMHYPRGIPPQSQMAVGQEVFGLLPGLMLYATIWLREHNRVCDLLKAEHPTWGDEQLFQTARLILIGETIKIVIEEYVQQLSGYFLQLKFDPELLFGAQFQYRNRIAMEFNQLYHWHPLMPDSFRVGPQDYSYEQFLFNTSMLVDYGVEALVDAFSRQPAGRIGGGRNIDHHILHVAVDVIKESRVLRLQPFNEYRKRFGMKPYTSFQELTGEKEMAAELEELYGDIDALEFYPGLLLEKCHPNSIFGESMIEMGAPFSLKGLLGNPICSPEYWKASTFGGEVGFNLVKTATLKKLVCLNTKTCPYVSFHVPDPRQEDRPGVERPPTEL

[22] = Cardiotoxicity against Sprague-Dawley rat assessed as increase in Bcl-2 level in heart at 14.2 mg/kg, ip administered for 6 days by immunofluorescence staining analysis; format: toxicity, organism-based; settings: in vivo, 144 h, time 6 day
[23] = Toxicity against C57BL/6J mouse assessed as ALT level in serum at 506 umol/kg, ip measured after 24 hrs; format: organism-based; settings: in vivo, dose 506 µmol/kg
[24] = Cardiotoxicity against Sprague-Dawley rat assessed as myocardial fibrosis at 14.2 mg/kg, ip administered for 6 days by Masson staining analysis; format: toxicity, organism-based; settings: in vivo, 144 h, time 6 day
[25] = Toxicity against Sprague-Dawley rat assessed as dysbiosis in gut microbiota at 10.5 mg/kg, po administered via gavage for 7 days and measured at 2 hrs post-last drug dosage by 16S rRNA amplicon sequencing based PCA analysis; format: organism-based; settings: in vivo, 168 h, time 7 day
[26] = Oral bioavailability in Wistar rat at 10.5 mg/kg; format: ADME, organism-based; settings: in vivo
Rattus norvegicus [27] = test: Antiinflammatory activity against collagen-induced arthritis Wistar rat model assessed as reduction in toe swelling at 33.7 umol/kg, po administered for 28 days via gavage; format: functional, organism-based; settings: dose 33.7 µmol/kg, time 28.0 day
[28] = Stability in Wistar rat assessed as parent drug level in blood at 10.5 mg/kg, po administered via gavage measured after 5 mins by LC-MS/MS analysis; format: ADME, organism-based; settings: in vivo
[29] = Cardiotoxicity against Sprague-Dawley rat assessed as SOD level in heart at 14.2 mg/kg, ip administered for 6 days; format: toxicity, organism-based; settings: in vivo, 144 h, time 6 day
[30] = Toxicity against Sprague-Dawley rat assessed as decrease in crypt proliferation at 10.5 mg/kg, po administered via gavage for 7 days and measured at 2 hrs post-last drug dosage by Ki67 immunohistochemistry; format: organism-based; settings: in vivo, 168 h, time 7 day
Rattus norvegicus [31] = test: Antiinflammatory activity against collagen-induced arthritis Wistar rat model assessed as reduction in IL-1 beta level in serum at 33.7 umol/kg, po administered for 28 days via gavage by ELISA; format: functional, organism-based; settings: dose 33.7 µmol/kg, time 28.0 day
[32] = Toxicity against collagen-induced arthritis Wistar rat model assessed as AST level in serum at 33.7 umol/kg, po administered for 28 days; format: organism-based; settings: in vivo, 672 h, dose 33.7 µmol/kg, time 28 day
[33] = Toxicity against Sprague-Dawley rat assessed as potentially pathogenic bacteria (Clostridiaceae and Peptostreptococcaceae) level at 10.5 mg/kg, po administered via gavage for 7 days and measured at 2 hrs post-last drug dosage by Kruskal-Wallis H test; format: organism-based; settings: in vivo, 168 h, time 7 day
[34] = Drug metabolism in Wistar rat assessed as DCF level in blood at 10.5 mg/kg, po administered via gavage measured after 10 mins by LC-MS/MS analysis; format: ADME, organism-based; settings: in vivo
[35] = Toxicity against collagen-induced arthritis Wistar rat model assessed as decrease in SOD activity in liver at 33.7 umol/kg, po administered for 28 days; format: organism-based; settings: in vivo, 672 h, dose 33.7 µmol/kg, time 28 day
[36] = Toxicity against Sprague-Dawley rat assessed as diarrhea at 10.5 mg/kg, po administered via gavage for 7 days; format: organism-based; settings: in vivo, 168 h, time 7 day
[37] = Toxicity against collagen-induced arthritis Wistar rat model assessed as decrease in CAT activity in kidney at 33.7 umol/kg, po administered for 28 days; format: organism-based; settings: in vivo, 672 h, dose 33.7 µmol/kg, time 28 day
[38] = Cardiotoxicity against Sprague-Dawley rat assessed as striated muscle recovery with reduced vacuolation in heart at 14.2 mg/kg, ip administered for 6 days by Hematoxylin-Eosin staining analysis; format: toxicity, organism-based; settings: in vivo, 144 h, time 6 day
[39] = Toxicity against collagen-induced arthritis Wistar rat model assessed as uric acid level in serum at 33.7 umol/kg, po administered for 28 days; format: organism-based; settings: in vivo, 672 h, dose 33.7 µmol/kg, time 28 day

Stability [2]: Stable
Drug metabolism [3]: 942.7 ng/mL
Stability [10]: Stable
half-life [18]: 1.45 h
IC50 [21]: 35.9 nM
bioavailability [26]: 80%
Stability [28]: 2330 ng/mL
Drug metabolism [34]: 9755 ng/mL
SMILES: O=C([S-])Cc1ccccc1Nc1c(Cl)cccc1Cl.[Na+]
Activity [1]: Non-toxic
Activity [4]: Non-toxic
Activity [5]: Non-toxic
Activity [6]: Non-toxic
Activity [7]: 1.2 µg/mg
Activity [8]: 66.5 U/L
Activity (Rattus norvegicus [9]): Active
Activity [11]: Non-toxic
Activity [12]: 1165 U/L
Activity [13]: Non-toxic
Activity [14]: 2.7 ng/mL
Activity [15]: 8%
Activity [16]: Non-toxic
Activity [17]: 313.9 µmol/L
Activity [19]: Non-toxic
Activity [20]: 8%
Activity [22]: Non-toxic
Activity [23]: 45.9 U/L
Activity [24]: Non-toxic
Activity [25]: Non-toxic
Activity (Rattus norvegicus [27]): Active
Activity [29]: Non-toxic
Activity [30]: Non-toxic
Activity (Rattus norvegicus [31]): Active
Activity [32]: 50.2 U/L
Activity [33]: Non-toxic
Activity [35]: Non-toxic
Activity [36]: Non-toxic
Activity [37]: Non-toxic
Activity [38]: Non-toxic
Activity [39]: 123.9 µmol/L
